From US20250002507A1, “7,8-DIHYDRO-5H-1,6-NAPHTHYRIDINE DERIVATIVES AS POSITIVE ALLOSTERIC MODULATORS OF THE MUSCARINIC ACETYLCHOLINE RECEPTOR M4 FOR TREATING NEUROLOGICAL AND PSYCHIATRIC DISORDERS” (Vanderbilt University, priority 2021, published 2025)

Molecular target: T1, Human M4 (Homo sapiens, UniProt P08173)
T1 construct: expressed in transfected cells
T1 sequence (P08173 1-479): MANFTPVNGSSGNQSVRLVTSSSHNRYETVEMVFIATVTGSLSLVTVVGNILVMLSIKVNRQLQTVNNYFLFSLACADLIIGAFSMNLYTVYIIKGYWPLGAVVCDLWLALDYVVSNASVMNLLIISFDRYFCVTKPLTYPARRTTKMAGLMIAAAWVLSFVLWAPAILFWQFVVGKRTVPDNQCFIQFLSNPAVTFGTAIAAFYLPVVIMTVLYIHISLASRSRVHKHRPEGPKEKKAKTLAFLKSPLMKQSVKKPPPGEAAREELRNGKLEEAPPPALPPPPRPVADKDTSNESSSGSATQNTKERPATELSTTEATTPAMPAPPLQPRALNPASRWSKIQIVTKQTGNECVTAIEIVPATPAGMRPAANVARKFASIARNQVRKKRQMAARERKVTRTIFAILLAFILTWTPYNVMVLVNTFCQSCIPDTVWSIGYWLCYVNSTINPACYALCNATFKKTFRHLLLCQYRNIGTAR
Assay: mAChR M4 cell-based functional assay (calcium flux, potentiation of EC20 acetylcholine response), hM4-Gqi5 CHO-K1 cells
Details: Table 3; for Emax at 30 µM: CHO-K1, Human M4, % ACh maximum at 30 μM, read-out: Emax (% ACh maximum at 30 μM); for EC50: potentiation of EC20 acetylcholine response, calcium flux, CHO-K1 cells, read-out: Human M4 EC50
How it was run: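 CHO-K1 cells stably expressing human M4 with chimeric Gqi5, loaded with Fluo-4 AM 50 min at 37 °C; calcium flux read by FDSS. 11-point 1:3 compound curves added, then EC20 acetylcholine at 144 s; potentiation of the EC20 response fitted by four-parameter logistic to give EC50 and Emax.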

SMILES | Emax at 30 µM [%] | EC50 [nM]
Cc1c(N2CCc3ncc(C(=O)NCc4cncs4)cc3C2)nn2c(C(F)(F)F)nnc2c1C [Compound 228, 6-(7,8-dimethyl-3-(trifluoromethyl)-[1,2,4]triazolo[4,3-b]pyridazin-6-yl)-N-(thiazol-5-ylmethyl)-5,6,7,8-tetrahydro-1,6-naphthyridine-3-carboxamide] | 85 | 1720
COc1ccc2c(c1)CCCN2c1cnc2c(c1)CN(c1nn3c(C(F)(F)F)nnc3c(C)c1C)CC2 [Compound 229, 6-(7,8-dimethyl-3-(trifluoromethyl)-[1,2,4]triazolo[4,3-b]pyridazin-6-yl)-3-(6-methoxy-3,4-dihydroquinolin-1(2H)-yl)-5,6,7,8-tetrahydro-1,6-naphthyridine] | 48 | 590
Cc1c(N2CCc3ncc(N4CCOc5ccccc54)cc3C2)nn2c(C(F)(F)F)nnc2c1C [Compound 230, 4-(6-(7,8-dimethyl-3-(trifluoromethyl)-[1,2,4]triazolo[4,3-b]pyridazin-6-yl)-5,6,7,8-tetrahydro-1,6-naphthyridin-3-yl)-3,4-dihydro-2H-benzo[b][1,4]oxazine] | 83 | 398
Cc1c(N2CCc3ncc(N4CCCc5ccccc54)cc3C2)nn2c(C(F)(F)F)nnc2c1C [Compound 231, 3-(3,4-dihydroquinolin-1(2H)-yl)-6-(7,8-dimethyl-3-(trifluoromethyl)-[1,2,4]triazolo[4,3-b]pyridazin-6-yl)-5,6,7,8-tetrahydro-1,6-naphthyridine] | 65 | 1930
Cc1c(N2CCc3ncc(N4CCOc5ccc(F)cc54)cc3C2)nn2c(C(F)(F)F)nnc2c1C [Compound 232, 4-(6-(7,8-dimethyl-3-(trifluoromethyl)-[1,2,4]triazolo[4,3-b]pyridazin-6-yl)-5,6,7,8-tetrahydro-1,6-naphthyridin-3-yl)-6-fluoro-3,4-dihydro-2H-benzo[b][1,4]oxazine] | 83 | 353
Cc1cc2nncn2nc1N1CCc2ncc(C(C)(C)O)cc2C1 [Compound 233, 2-(6-(7-methyl-[1,2,4]triazolo[4,3-b]pyridazin-6-yl)-5,6,7,8-tetrahydro-1,6-naphthyridin-3-yl)propan-2-ol] | 97 | 4010
Cc1c(N2CCc3ncc(-c4cnn(C5CC5)c4)cc3C2)nn2c(C(F)(F)F)nnc2c1C [Compound 234, 3-(1-cyclopropyl-1H-pyrazol-4-yl)-6-(7,8-dimethyl-3-(trifluoromethyl)-[1,2,4]triazolo[4,3-b]pyridazin-6-yl)-5,6,7,8-tetrahydro-1,6-naphthyridine] | 78 | 330
Cc1c(N2CCc3ncc(-c4cnn(C5CCC5)c4)cc3C2)nn2c(C(F)(F)F)nnc2c1C [Compound 235, 3-(1-cyclobutyl-1H-pyrazol-4-yl)-6-(7,8-dimethyl-3-(trifluoromethyl)-[1,2,4]triazolo[4,3-b]pyridazin-6-yl)-5,6,7,8-tetrahydro-1,6-naphthyridine] | 76 | 788
Cc1cnn(C)c1-c1cnc2c(c1)CN(c1nn3c(C(F)(F)F)nnc3c(C)c1C)CC2 [Compound 236, 3-(1,4-dimethyl-1H-pyrazol-5-yl)-6-(7,8-dimethyl-3-(trifluoromethyl)-[1,2,4]triazolo[4,3-b]pyridazin-6-yl)-5,6,7,8-tetrahydro-1,6-naphthyridine] | 65 | 165
CCn1cc(-c2cnc3c(c2)CN(c2nn4c(C(F)(F)F)nnc4c(C)c2C)CC3)cn1 [Compound 237, 6-(7,8-dimethyl-3-(trifluoromethyl)-[1,2,4]triazolo[4,3-b]pyridazin-6-yl)-3-(1-ethyl-1H-pyrazol-4-yl)-5,6,7,8-tetrahydro-1,6-naphthyridine] | 84 | 332
Cc1c(N2CCc3ncc(-c4cnn(Cc5ccccc5)c4)cc3C2)nn2c(C(F)(F)F)nnc2c1C [Compound 238, 3-(1-benzyl-1H-pyrazol-4-yl)-6-(7,8-dimethyl-3-(trifluoromethyl)-[1,2,4]triazolo[4,3-b]pyridazin-6-yl)-5,6,7,8-tetrahydro-1,6-naphthyridine] | 55 | 1310
COc1cnc(Cl)c(-c2cnc3c(c2)CN(c2nn4c(C(F)(F)F)nnc4c(C)c2C)CC3)c1 [Compound 239, 3-(2-chloro-5-methoxypyridin-3-yl)-6-(7,8-dimethyl-3-(trifluoromethyl)-[1,2,4]triazolo[4,3-b]pyridazin-6-yl)-5,6,7,8-tetrahydro-1,6-naphthyridine] | 57 | 613
Cc1c(N2CCc3ncc(-c4cnn(C)c4)cc3C2)nn2c(C(F)(F)F)nnc2c1C [Compound 240, 6-(7,8-dimethyl-3-(trifluoromethyl)-[1,2,4]triazolo[4,3-b]pyridazin-6-yl)-3-(1-methyl-1H-pyrazol-4-yl)-5,6,7,8-tetrahydro-1,6-naphthyridine] | 77 | 158
Cc1c(N2CCc3ncc(-c4ccc(N(C)C)nc4)cc3C2)nn2c(C(F)(F)F)nnc2c1C [Compound 241, 5-(6-(7,8-dimethyl-3-(trifluoromethyl)-[1,2,4]triazolo[4,3-b]pyridazin-6-yl)-5,6,7,8-tetrahydro-1,6-naphthyridin-3-yl)-N,N-dimethylpyridin-2-amine] | 61 | 1230
Cc1c(N2CCc3ncc(-n4nccc4C)cc3C2)nn2c(C(F)(F)F)nnc2c1C [Compound 242, 6-(7,8-dimethyl-3-(trifluoromethyl)-[1,2,4]triazolo[4,3-b]pyridazin-6-yl)-3-(5-methyl-1H-pyrazol-1-yl)-5,6,7,8-tetrahydro-1,6-naphthyridine] | 80 | 696
Cc1cc(C)n(-c2cnc3c(c2)CN(c2nn4c(C(F)(F)F)nnc4c(C)c2C)CC3)n1 [Compound 243, 3-(3,5-dimethyl-1H-pyrazol-1-yl)-6-(7,8-dimethyl-3-(trifluoromethyl)-[1,2,4]triazolo[4,3-b]pyridazin-6-yl)-5,6,7,8-tetrahydro-1,6-naphthyridine] | 77 | 729
Cc1c(N2CCc3ncc(-n4cccc4)cc3C2)nn2c(C(F)(F)F)nnc2c1C [Compound 244, 6-(7,8-dimethyl-3-(trifluoromethyl)-[1,2,4]triazolo[4,3-b]pyridazin-6-yl)-3-(1H-pyrrol-1-yl)-5,6,7,8-tetrahydro-1,6-naphthyridine] | 86 | 546
Cc1c(N2CCc3ncc(-c4ccc(F)nc4)cc3C2)nn2c(C(F)(F)F)nnc2c1C [Compound 245, 6-(7,8-dimethyl-3-(trifluoromethyl)-[1,2,4]triazolo[4,3-b]pyridazin-6-yl)-3-(6-fluoropyridin-3-yl)-5,6,7,8-tetrahydro-1,6-naphthyridine] | 80 | 680
Cc1c(N2Cc3cc(C(F)(F)F)cnc3C(C)C2)nn2cnnc2c1C (centres unmarked) [Compound 246, 6-(7,8-dimethyl-[1,2,4]triazolo[4,3-b]pyridazin-6-yl)-8-methyl-3-(trifluoromethyl)-5,6,7,8-tetrahydro-1,6-naphthyridine] | 90 | 408
